Patent publication US12478693B2, “Compositions and methods for detection of traumatic brain injury” (Amydis, Inc., priority 2018, dated 2025)
“Also recorded” adds a separate entry of the source.

How the values were obtained:
Type in all cases: binding
[1] = test system: amyloid beta in brain tissue; assay: Staining of brain tissue of TBI blast mouse model
Text: Based on this evidence, this example further attempted to confirm that […] was also detected in the brain tissue of the same TBI blast mouse model. […] The evidence of Aβ in the brain tissue complements what was found in the retinal tissue of the same injured mouse. It also supports previous studies of the correlation between the brain and retina in the accumulation of Aβ.

[2] = test system: amyloid beta in retinal tissue; assay: Staining of retinal tissue of TBI blast mouse model; details: for fluorescent labelling of retinal Aβ deposits: blast mouse model, 24 hours after injury; for fluorescent labelling of retinal tissue: non-injured (normal) mouse
Description: This example was conducted to determine whether the ASF Compound 1 could detect AR in the retina of a TBI mouse model after injury.
Retinal tissue of a blast mouse model 24 hours after injury and a non-injured mouse were stained with the ASF and co-stained with an […] (6E10).

[3] = test system: aggregated proteins in retina; assay: Retina staining after controlled cortical impact (Example 3); details: 3 month old C5BL/6 mice, 24 h after CCI
Text: 3 month old C5BL/6 mice were briefly anesthetized with isoflurane and placed in a stereotaxic frame. Mice were subjected to craniotomy over the right primary and secondary motor cortex and parietal-temporal cortex (+1 to −4 anterior-posterior from the bregma, 4 mm laterally from the sagittal suture). Half of the mice were not further injured to use as control specimen. For the remaining mice a 3 mm diameter piston was centered over the motor cortex approximately +0.5 to −2.5 mm from the bregma and 3 mm lateral to the sagittal suture. Using a stereotaxic impactor (Impact One, myNeuroLab.com), the piston was accelerated at a speed of 3 m/sec to an impact depth of 1 mm below the cortical surface. After 24 h, mice were euthanized and brain and eyes were collected. Retinas were extracted, stained with DAPI, Compound 1, and 6E10 antibody, and compared.
Retinas were mounted on slides and washed with phosphate-buffered saline (PBS) two times for five minutes each time. Retinas were exposed to 98% formic acid for one minute then washed two times with distilled water for five minutes each time. The retinas were then equilibrated in 1×PBS for 15 minutes. Retinas were exposed to 10% goat/donkey serum in 1× phosphate-buffered saline with Tween® 20 (PBST) for 1 h. Retinas were then incubated with […] in 10% goat serum in 1×PBST at 4° C. overnight. […]

[4] = test system: amyloid-beta (Aβ) deposits in human retinal tissue; assay: Ex vivo fluorescence staining of post-mortem human retina with ASF probe; details: AD and cognitively normal patients, listed as ASF
Description: Post-mortem retinal tissue and brains of humans with confirmed or probable Alzheimer's disease (AD) were obtained and examined by staining amyloid-beta (A3) with a test amyloid sensitive fluorescent probe (ASF), Compound 1. This example was conducted to determine if the ASF could identify patients with amyloid burden in the brain through fluorescence inspection of retinas stained with the ASF.
While this example could observe these deposits in both AD (panels A-B) and cognitively normal patients (panels C-D), there is a qualitative correlation between the density of these deposits in the retina and the degree of amyloidosis in the brain (as estimated by immunohistochemistry (IHC) with anti-Aβ antibodies).
IHC staining of retinal cryosections provided further evidence for the existence of Aβ in retinal deposits with similar location, size, and morphology as the deposits found in retinal flat mounts stained with the ASF.

Aβ deposits in retina = target: T1, Aβ deposits in retina (Mus musculus, UniProt P12023); assay: Ex vivo detection of retinal Aβ aggregation in CCI mouse model (Example 4)
T1 construct: denotes peptides of about 36 to 43 amino acids; from tissue; host or cells: mouse retina dissected 24 h after CCI
T1 sequence (P12023 672-713 limits assumed): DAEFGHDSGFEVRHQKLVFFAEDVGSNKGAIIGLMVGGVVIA
Description: Mice were subjected to a controlled cortical impact (CCI). The CCI model applies a controlled impact to the intact dura after a craniotomy and is a commonly used TBI animal model. Mice were anesthetized, the head was mounted in a stereotaxic frame, and a craniotomy was performed over the right side of the frontal cortex. Using a stereotaxic impactor, mice received an impact on the right side of the frontal cortex using a 3 m/s velocity, 1 mm depth, and 3 mm diameter piston. After injury, the incision was closed with staples, anesthesia was terminated, and the animal was placed in a heated cage to maintain normal core temperature.
Sham injury consisted of exposure to anesthesia, stereotaxic mounting, skin and fascia reflection, and closing of incision with staples. Mice were then euthanized 24 hours after injury and retinal tissue were dissected for further analysis.
Retina from mice were extracted and stained with Compound 1 along with a 6E10 antibody, a sequence specific antibody for Aβ.
Mice were subjected to a controlled cortical impact (CCI). The CCI model applies a controlled impact to the intact dura after a craniotomy and is a commonly used TBI animal model. Mice were anesthetized, the head was mounted in a stereotaxic frame, and a craniotomy was performed over the right side of the frontal cortex. […]

COCCOCCOCCNC(=O)/C(C#N)=C/c1ccc2cc(N3CCCCC3)ccc2c1 [Compound 1, (E)-2-cyano-N-(2-(2-(2-methoxyethoxy)ethoxy)ethyl)-3-(6-(piperidin-1l-yl)naphthalen-2-yl)acrylamide]
fluorescent labelling of amyloid beta in brain tissue ([1]; TBI blast mouse model): fluoresces amyloid beta in brain tissue of TBI blast mouse model | fluorescent labelling of brain tissue ([1]; normal mouse): No visible fluorescence in normal mouse | fluorescent labelling of retinal Aβ deposits [2]: fluoresces amyloid beta in retinal tissue of TBI blast mouse model; also recorded: has the ability to detect retinal amyloids present in a TBI mouse model | fluorescent labelling of retinal Aβ deposits ([2]; listed as ASF): fluorescently labels these retinal deposits | fluorescent labelling of retinal tissue [2]: No visible fluorescence in normal mouse | fluorescent labelling of retinal tissue ([2]; listed as ASF): does not display any fluorescent enhancement | detection of deposited aggregated proteins in retina [3]: detected; also recorded: colocalized | fluorescent visualization / binding of amyloid deposits in flat mounted retina [4]: dense deposits that were 5-10 μm in diameter could be fluorescently visualized; also recorded: capable of binding to amyloid deposits in ex vivo human retinal tissue | fluorescent labelling of retinal Aβ deposits (Aβ deposits in retina; mice that received a CCI, 24 hours after injury, retina ex vivo): fluorescently labeled these deposits and co-localized with 6E10 immunoreactivity | fluorescence enhancement in retina (Aβ deposits in retina; uninjured (sham) mouse): did not display any fluorescence enhancement
